Series [1] has as its system NRF2 gene. The series can be described thus: TIDE indel analysis of bulk sorted eGFP+ A549 cells transfected with pX458 CRISPR/Cas9 constructs. In kind it is cell-based, human. To be noted: bulk sorted eGFP+ A549 population, pX458 plasmid. Here is the method:
A549 cells were transfected at a concentration of 5×10^5 cells/100 μl in 4 mm gap cuvette (BioExpress, Kaysville, UT, USA). NRF2 targeting pX458 constructs were separately electroporated (250 V. LV, 13 ms pulse length, 2 pulses, 1 s interval) into A549 cells using a Bio-Rad Gene Pulser XCell Electroporation System (Bio-Rad Laboratories, Hercules, CA, USA). Cells were then recovered in 6-well plates with complete growth media at 37° C. for 72 hours prior to sorting. […] Clones were expanded and transferred to larger plates as the individual clones reached confluence, with DNA isolation occurring when cells reached confluence in a six-well plate (1×10^6 cells/mL).
CRISPR/Cas9 targeted A549 clones were PCR amplified (forward 5′-[…] (SEQ ID NO: 5), reverse 5′-[…] (SEQ ID NO: 6)) using Amplitaq Gold Fast PCR Master Mix (Applied Biosystems, Foster City, CA). Briefly, template DNA, primers, water and master mix were combined and cycled: 95° C. for 10 minutes, (96° C. for 3 s, 60° C. for 3 s, 68° C. for 5 s)×35 cycles, and 72° C. for 10 s. The 402 bp products were purified (Qiagen, Hilden, Germany) and Sanger sequenced using the forward PCR primer. Clonal allelic analyses of individual A549 cell clones were analyzed by the software program, Tracking of Indels by DEcomposition (TIDE), to determine the individual sub-sequences within the multi-peaked breakdown product after CRISPR/Cas9 activity. […]

Series [2] relates to NRF2 knockout A549 cells (2-11). The series can be described thus: MTS cell proliferation assay after drug exposure, NRF2 knockout cells. In kind it is cell-based, human. To be noted: 2-11 knockout A549 cells, 72 hours; for chemosensitivity (MTS proliferation): increasing dosages. Here is the method:
(§1) Cell viability was evaluated using the CellTiter 96 Aqueous Non-Radioactive Cell Proliferation Assay (Promega, Madison, WI). A549 cell lines were plated at 2×10^3 cells per well and allowed to culture for 24 hours. The cell media was then aspirated, the cells washed with PBS, then exposed to the MTS reagent for 3 hours. After 3 hours of MTS bio-reduction by proliferating cells, the formazan product's absorbance was measured using a 450 nm filter on an Infinite 2000 PRO microplate reader (Tecan, Mannadorf, Switzerland). Cell viability after drug exposure was evaluated using the CellTiter 96 Aqueous Non-Radioactive Cell Proliferation Assay. A549 cell lines were plated at 2×10^3 cells per well and allowed to culture for 24 hours. The cells were then treated with cisplatin, carboplatin, or a combination of cisplatin and vinorelbine for three days. The cell media was then aspirated, the cells washed with PBS, then exposed to the MTS reagent for 3 hours. After 3 hours of MTS bio-reduction by proliferating cells, the formazan product's absorbance was measured using a 450 nm filter on an Infinite 2000 PRO microplate reader.

The subject of series [3] is NRF2 knockout A549 (2-11) tumors. The series can be described thus: Xenograft mouse model, NRF2 knockout A549 (2-11) tumors. The class given is in vivo, athymic nude mice. Particulars: for tumor growth: 16 days. The procedure:
The animal trials presented herein were carried out at Washington Biotech Inc., Simpsonville Maryland, under animal use and care protocol (SOP 505, SOP 520, SOP 522, SOP 1610, SOP1650) approved by the animal care and use committee of Washington Biotechnology Inc. (AAALAC accredited Animal Welfare Assurance number A4192-01). The human xenograft model was established using methodology reported previously. […] et al., Biomed Res. Int. 2015, 1-17 (2015). Female athymic nude mice (Envigo, 5-6 weeks old) were used in this study. Approximately 5×10^6 cells (wild type A549 or homozygous knockout (clonal expansion 2-11)) suspended in PBS with 20% Matrigel were injected subcutaneously into right flank of each mouse. Tumor volume was measured three times a week with a digital caliper once palpable, and calculated using the formula, tumor size=ab^2/2, where 'a' is the larger and 'b' is the smaller of the two dimensions. When tumors grew up to a mean volume of around 100 mm^3, A549 tumor bearing mice or A549-2-11 tumor bearing mice were randomly divided into 7 groups (N=5 for each group) respectively and subject to dose/regimen-finding study. […] Tumor volume and body weight was closely monitored over time. After 16 days, the animals were sacrificed, with tumor removed, weighed and processed for molecular analysis. Mice were euthanized. The data were expressed as mean±SD. Student's t-test and one-way or two-way ANOVA was used to assess the significance of difference. […] A549 xenografts were resected on day 16, snap frozen in liquid nitrogen and stored in -80° C. until usage. All immunofluorescence staining was performed as previously described. Wang et al., Investig. Opthalmology Vis. Sci. 58, 3896 (2017). Briefly, tumors were embedded in Optimum Cutting Temperature (Tissue Tek, Torrance, CA, USA) and 16-μm-thick sections were obtained with a Leica CM3050 cryostat (Leica Microsystems, Buffalo Grove, IL, USA), and mounted on slides. Slides were fixed and incubated with blocking buffer for 1 hour at room temperature. […]

Series [4] has as its system wild type A549 cells. The series can be described thus: MTS cell proliferation assay after drug exposure, wild type cells. In kind it is cell-based, human. The procedure: as §1

“And” between values parts separate entries of the source, which are not always exact repeats. Equal entries are not always repeated. “Also recorded” adds a separate entry of the source.

Take “5′-UCGAUGUGACCGGGAAUAUCAGG (listed as RNA, chemistry not fully specified) [gRNA1]”: the “indels (TIDE), NRF2 disruption” value in series [1] is given as “significant amount of indels”.
Take “5′-UGAUUUAGACGGUAUGCAACAGG (listed as RNA, chemistry not fully specified) [gRNA2]”: in series [1], the “indels (TIDE), NRF2 disruption” value was “significant amount of indels”.
Regarding `N.N.O=C([O-])C1(C(=O)[O-])CCC1.[Pt+2]` [carboplatin], in series [2] (listed as Carboplatin), the “chemosensitivity (MTS proliferation)” value is listed as “reflected what was observed in the experiments using cisplatin”. For the same compound, the tumor growth result in series [3] (25 mg/kg carboplatin tail vein on day 0, 3, 6, 9) was “same reduced proliferation and growth trend described above is reproduced”.
For `N.N.[Cl][Pt][Cl]` [cisplatin], in series [2], the “concentration at and above which proliferation is lost” value was ≥ 1 µM; the “chemosensitivity (MTS proliferation)” value is on record as “increase in chemosensitivity in a dose-dependent fashion”. Also, the tumor growth entry in series [3] (cisplatin 2 mg/kg tail vein on day 0, 3, 6, 9) was “proliferation of the implanted cells is arrested; also recorded: smallest tumors”. Moreover, the “Ki67 staining of xenograft tumors” value in series [3] (cisplatin 2 mg/kg, tumors resected day 16, compared to saline) is given as “even lower levels of Ki67”. Also, in series [4] (wild type A549, 72 hours), the “concentration up to which a slight increase in cell proliferation is seen” value is reported as “up to 3 μM”; the “final concentration at which proliferation is adversely affected” value is 5 µM and 10 µM. The “response of cell proliferation to drug (MTS)” value in series [4] (wild type A549, increasing dosages, 72 hours) was “resistant to high dosages of Cisplatin”.

The record behind these values is patent US12203070B2, “Gene knockout of NRF2 for treatment of cancer” (Christiana Care Gene Editing Institute , Inc., priority 2019, dated 2025).
